From patent US10294202B2, “Pyrrolidinones as herbicides” (FMC Corporation, priority 2013, dated 2019)

How the values were obtained:
nutsedge, yellow = experiment: Test C pre-/postemergence herbicide test; type: in vivo, Cyperus esculentus
Method in brief: (§1)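 Visual rating, 0 (no effect) to 100 (complete control), versus untreated controls after 13 to 15 days in the greenhouse. Pre: seeds in loam/sand, sprayed at planting. Post: 1- to 4-leaf plants (2 to 18 cm) in peat-based mix. Compounds in non-phytotoxic solvent plus surfactant.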

rice = experiment: Test B flooded paddy test; type: in vivo, Oryza sativa; settings: Flood, scale of 0 to 100 where 0 is no effect and 100 is complete control
Method in brief: (§2)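 Scoring: visual, compared with untreated controls, 0 = no effect through 100 = complete control, taken 13 to 15 days after treatment in the greenhouse. Compounds had been added to paddy water over soil flooded 3 cm deep at the plants' 2-leaf stage.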

barnyardgrass [1] = experiment: Test C pre-/postemergence herbicide test; type: in vivo, Echinochloa crus-galli
Method in brief: as §1

blackgrass = experiment: Test C pre-/postemergence herbicide test; type: in vivo, Alopecurus myosuroides
Method in brief: as §1

wheat = experiment: Test A pre-/postemergence herbicide test; type: in vivo, Triticum aestivum
Method in brief: (§3)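 Seeds sown in loam soil/sand blend received a preemergence directed soil spray of test chemical in non-phytotoxic solvent with surfactant; postemergence plants (2–10 cm, one- to two-leaf stage) were sprayed with the same formulation. After about 10 days in greenhouse, injury was rated visually versus untreated controls, 0 (no effect) to 100 (complete control).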

crabgrass, large = experiment: Test C pre-/postemergence herbicide test; type: in vivo, Digitaria sanguinalis
Method in brief: as §1

pigweed = experiment: Test C pre-/postemergence herbicide test; type: in vivo, Amaranthus retroflexus
Method in brief: as §1

oilseed rape = experiment: Test C pre-/postemergence herbicide test; type: in vivo, Brassica napus
Method in brief: as §1

barnyardgrass [2] = experiment: Test B flooded paddy test; type: in vivo, Echinochloa crus-galli; settings: Flood, scale of 0 to 100 where 0 is no effect and 100 is complete control
Method in brief: as §2

lambsquarters = experiment: Test C pre-/postemergence herbicide test; type: in vivo, Chenopodium album
Method in brief: as §1

giant foxtail = experiment: Test A pre-/postemergence herbicide test; type: in vivo, Setaria faberii
Method in brief: as §3

ducksalad = experiment: Test B flooded paddy test; type: in vivo, Heteranthera limosa; settings: Flood, scale of 0 to 100 where 0 is no effect and 100 is complete control
Method in brief: as §2

[3] = Preemergence, 31 g ai/ha, scale 0 to 100, 0 is no effect and 100 is complete control
[4] = Preemergence, 62 g ai/ha, scale 0 to 100 (0 no effect, 100 complete control)
[5] = Preemergence, 125 g ai/ha, scale 0 to 100 (0 no effect, 100 complete control)
[6] = Postemergence, 125 g ai/ha, 0 to 100 scale, 0 is no effect, 100 is complete control
[7] = Postemergence, 500 g ai/ha, 0 to 100 scale (0 no effect, 100 complete control)
[8] = Preemergence, 125 g ai/ha, 0 to 100 scale where 0 is no effect and 100 is complete control
[9] = preemergence, 500 g ai/ha, 0 to 100 scale, 0 is no effect and 100 is complete control
[10] = Postemergence, 31 g ai/ha, scale 0 to 100 (0 no effect, 100 complete control)
[11] = Postemergence, 62 g ai/ha, scale 0 (no effect) to 100 (complete control)
[12] = Postemergence, 125 g ai/ha, scale 0 to 100 (0 no effect, 100 complete control)
[13] = Postemergence, 250 g ai/ha, scale 0 to 100 (0 no effect, 100 complete control)

O=C1NCC(c2ccc(C(F)(F)F)nc2)C1C(=O)Nc1ccccc1F (racemic) [Compound 262]
98: Crabgrass, Large plant response rating (crabgrass, large; [4])
5: Plant response rating (scale of 0 to 100), Pigweed (pigweed; Preemergence, 250 g ai/ha)
75: Nutsedge, Yellow plant response rating (nutsedge, yellow; [3])
100: Plant response rating, Crabgrass, Large (crabgrass, large; [5]) | Plant response rating (scale of 0 to 100), Crabgrass, Large (crabgrass, large; Preemergence, 250 g ai/ha) | Lambsquarters plant response rating (lambsquarters; [3]) | Plant response rating (scale of 0 to 100), Lambsquarters (lambsquarters; Preemergence, 250 g ai/ha) | Plant response rating, Ducksalad (ducksalad; 1000 g ai/ha)
70: Barnyardgrass plant response rating (barnyardgrass [1]; [4]) | Plant response rating (scale of 0 to 100), Oilseed Rape (oilseed rape; Preemergence, 250 g ai/ha) | Lambsquarters plant response rating (lambsquarters; [4]) | Plant response rating, Foxtail, Giant (giant foxtail; [7])
45: Barnyardgrass plant response rating (barnyardgrass [1]; [3])
95: Plant response rating (scale of 0 to 100; 0 is no effect, 100 is complete control), Barnyardgrass (barnyardgrass [1]; Preemergence, 250 g ai/ha) | Crabgrass, Large plant response rating (crabgrass, large; [3])
80: Plant response rating, Lambsquarters (lambsquarters; [5]) | Plant response rating, Foxtail, Giant (giant foxtail; [8])
20: Plant response rating, Barnyardgrass (barnyardgrass [2]; 1000 g ai/ha)
60: Plant response rating, Foxtail, Giant (giant foxtail; [6])
0: Nutsedge, Yellow plant response rating (nutsedge, yellow; [4]) | Plant response rating, Nutsedge, Yellow (nutsedge, yellow; [5]) | Plant response rating (scale of 0 to 100), Nutsedge, Yellow (nutsedge, yellow; Preemergence, 250 g ai/ha) | Plant response rating, Rice (rice; 1000 g ai/ha) | Blackgrass plant response rating (blackgrass; [3]) | Blackgrass plant response rating (blackgrass; [4]) | Plant response rating, Blackgrass (blackgrass; [5]) | Plant response rating (scale of 0 to 100), Blackgrass (blackgrass; Preemergence, 250 g ai/ha) | Plant response rating, Wheat (wheat; [6]) | Plant response rating, Wheat (wheat; [7]) | Plant response rating, Wheat (wheat; [8]) | Plant response rating, Wheat (wheat; [9]) | Pigweed plant response rating (pigweed; [3]) | Pigweed plant response rating (pigweed; [4]) | Plant response rating, Pigweed (pigweed; [5]) | Oilseed Rape plant response rating (oilseed rape; [3])
90: Plant response rating, Barnyardgrass (barnyardgrass [1]; [5]) | Plant response rating, Foxtail, Giant (giant foxtail; [9])
35: Oilseed Rape plant response rating (oilseed rape; [4]) | Plant response rating, Oilseed Rape (oilseed rape; [5])

O=C1NCC(c2ccc(C(F)(F)F)nc2)C1C(=O)Nc1cccc(F)c1F (racemic) [Compound 263]
70: Plant response rating (scale of 0 to 100), Blackgrass (blackgrass; Preemergence, 250 g ai/ha) | Pigweed plant response rating (pigweed; [3]) | Pigweed plant response rating (pigweed; [4]) | Plant response rating, Lambsquarters (lambsquarters; [5])
90: Barnyardgrass plant response rating (barnyardgrass [1]; [4]) | Plant response rating (scale of 0 to 100), Oilseed Rape (oilseed rape; Preemergence, 250 g ai/ha) | Plant response rating, Foxtail, Giant (giant foxtail; [7]) | Plant response rating, Foxtail, Giant (giant foxtail; [8]) | Plant response rating, Ducksalad (ducksalad; 1000 g ai/ha)
60: Plant response rating, Wheat (wheat; [7]) | Plant response rating, Wheat (wheat; [9]) | Oilseed Rape plant response rating (oilseed rape; [4]) | Plant response rating, Oilseed Rape (oilseed rape; [5])
80: Plant response rating (scale of 0 to 100), Lambsquarters (lambsquarters; Preemergence, 250 g ai/ha) | Plant response rating, Foxtail, Giant (giant foxtail; [6])
95: Plant response rating, Barnyardgrass (barnyardgrass [1]; [5]) | Plant response rating (scale of 0 to 100), Pigweed (pigweed; Preemergence, 250 g ai/ha)
98: Plant response rating (scale of 0 to 100; 0 is no effect, 100 is complete control), Barnyardgrass (barnyardgrass [1]; Preemergence, 250 g ai/ha) | Plant response rating, Pigweed (pigweed; [5])
0: Nutsedge, Yellow plant response rating (nutsedge, yellow; [3]) | Nutsedge, Yellow plant response rating (nutsedge, yellow; [4]) | Plant response rating (scale of 0 to 100), Nutsedge, Yellow (nutsedge, yellow; Preemergence, 250 g ai/ha) | Plant response rating, Rice (rice; 1000 g ai/ha) | Blackgrass plant response rating (blackgrass; [3]) | Blackgrass plant response rating (blackgrass; [4]) | Plant response rating, Wheat (wheat; [8]) | Plant response rating, Barnyardgrass (barnyardgrass [2]; 1000 g ai/ha)
75: Barnyardgrass plant response rating (barnyardgrass [1]; [3])
100: Plant response rating, Nutsedge, Yellow (nutsedge, yellow; [5]) | Crabgrass, Large plant response rating (crabgrass, large; [3]) | Crabgrass, Large plant response rating (crabgrass, large; [4]) | Plant response rating, Crabgrass, Large (crabgrass, large; [5]) | Plant response rating (scale of 0 to 100), Crabgrass, Large (crabgrass, large; Preemergence, 250 g ai/ha) | Lambsquarters plant response rating (lambsquarters; [4]) | Plant response rating, Foxtail, Giant (giant foxtail; [9])
50: Lambsquarters plant response rating (lambsquarters; [3])
40: Plant response rating, Blackgrass (blackgrass; [5]) | Oilseed Rape plant response rating (oilseed rape; [3])

O=C1NCC(c2cccc(Cl)c2)C1C(=O)Nc1cccc(F)c1F (racemic) [Compound 275]
85: Plant response rating, Barnyardgrass (barnyardgrass [1]; [13]) | Plant response rating, Crabgrass, Large (crabgrass, large; [13]) | Plant response rating, Barnyardgrass (barnyardgrass [2]; 500 g ai/ha) | Plant response rating, Lambsquarters (lambsquarters; [5])
15: Plant response rating, Crabgrass, Large (crabgrass, large; [10])
20: Plant response rating, Nutsedge, Yellow (nutsedge, yellow; [13])
0: Plant response rating, Nutsedge, Yellow (nutsedge, yellow; [10]) | Plant response rating, Nutsedge, Yellow (nutsedge, yellow; [11]) | Plant response rating, Nutsedge, Yellow (nutsedge, yellow; [12]) | Plant response rating, Rice (rice; 500 g ai/ha) | Plant response rating, Blackgrass (blackgrass; [10]) | Plant response rating, Blackgrass (blackgrass; [11]) | Pigweed plant response rating (pigweed; [3]) | Pigweed plant response rating (pigweed; [4]) | Oilseed Rape plant response rating (oilseed rape; [3])
45: Nutsedge, Yellow plant response rating (nutsedge, yellow; [3]) | Blackgrass plant response rating (blackgrass; [3]) | Plant response rating, Oilseed Rape (oilseed rape; [13])
70: Plant response rating, Blackgrass (blackgrass; [5]) | Plant response rating, Wheat (wheat; [7]) | Lambsquarters plant response rating (lambsquarters; [3])
95: Barnyardgrass plant response rating (barnyardgrass [1]; [4]) | Plant response rating, Barnyardgrass (barnyardgrass [1]; [5]) | Crabgrass, Large plant response rating (crabgrass, large; [4])
50: Oilseed Rape plant response rating (oilseed rape; [4])
60: Plant response rating, Barnyardgrass (barnyardgrass [1]; [11]) | Blackgrass plant response rating (blackgrass; [4]) | Plant response rating, Lambsquarters (lambsquarters; [11])
35: Plant response rating, Nutsedge, Yellow (nutsedge, yellow; [5]) | Plant response rating, Pigweed (pigweed; [13]) | Plant response rating, Oilseed Rape (oilseed rape; [12])
30: Plant response rating, Barnyardgrass (barnyardgrass [1]; [10]) | Plant response rating, Pigweed (pigweed; [12])
75: Plant response rating, Barnyardgrass (barnyardgrass [1]; [12]) | Plant response rating, Lambsquarters (lambsquarters; [12]) | Plant response rating, Lambsquarters (lambsquarters; [13]) | Lambsquarters plant response rating (lambsquarters; [4])
5: Plant response rating, Blackgrass (blackgrass; [12]) | Plant response rating, Pigweed (pigweed; [10]) | Plant response rating, Pigweed (pigweed; [11]) | Plant response rating, Oilseed Rape (oilseed rape; [10]) | Plant response rating, Oilseed Rape (oilseed rape; [11])
25: Nutsedge, Yellow plant response rating (nutsedge, yellow; [4])
80: Barnyardgrass plant response rating (barnyardgrass [1]; [3]) | Plant response rating (scale of 0 to 100), Blackgrass (blackgrass; Preemergence, 250 g ai/ha)
40: Plant response rating, Blackgrass (blackgrass; [13]) | Plant response rating, Wheat (wheat; Postemergence, 125 g ai/ha, visual rating on 0 to 100 scale (0 no effect, 100 complete control), approx. 10 days) | Plant response rating, Crabgrass, Large (crabgrass, large; [11]) | Plant response rating (scale of 0 to 100), Pigweed (pigweed; Preemergence, 250 g ai/ha)
10: Plant response rating, Pigweed (pigweed; [5]) | Plant response rating, Lambsquarters (lambsquarters; [10])
100: Plant response rating (scale of 0 to 100), Nutsedge, Yellow (nutsedge, yellow; Preemergence, 250 g ai/ha) | Plant response rating, Crabgrass, Large (crabgrass, large; [5]) | Plant response rating (scale of 0 to 100), Crabgrass, Large (crabgrass, large; Preemergence, 250 g ai/ha) | Plant response rating, Ducksalad (ducksalad; 500 g ai/ha)
65: Plant response rating, Crabgrass, Large (crabgrass, large; [12])
90: Crabgrass, Large plant response rating (crabgrass, large; [3]) | Plant response rating, Oilseed Rape (oilseed rape; [5]) | Plant response rating (scale of 0 to 100), Oilseed Rape (oilseed rape; Preemergence, 250 g ai/ha) | Plant response rating, Foxtail, Giant (giant foxtail; [6]) | Plant response rating, Foxtail, Giant (giant foxtail; [7]) | Plant response rating, Foxtail, Giant (giant foxtail; [8]) | Plant response rating, Foxtail, Giant (giant foxtail; [9])
98: Plant response rating (scale of 0 to 100; 0 is no effect, 100 is complete control), Barnyardgrass (barnyardgrass [1]; Preemergence, 250 g ai/ha) | Plant response rating (scale of 0 to 100), Lambsquarters (lambsquarters; Preemergence, 250 g ai/ha)
